The source of these data is patent US8063071B2 (GlaxoSmithKline, LLC, priority 2007, dated 2011).

The test system of experiment [1] is human monocyte stimulated cytokine production (TNF-α). Description: Monocyte assay (LPS-stimulated TNF-α production). Format: cell-based. The following applies: for IC50: 24 h, 200 ng/mL LPS, TNF-α by ELISA. In a few lines: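 Human CD14+ monocytes were purified from blood and plated at 1×10^6 cells/mL in RPMI 1640 with 10% FBS. Compound was added 30 min before stimulation with 200 ng/mL LPS (0.1% DMSO final), followed by 24 hrs at 37 C. Supernatant TNF-α was measured by ELISA, and viability by trypan blue exclusion.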
On the technique in general: In an ELISA, binding on a coated surface is turned into a signal by an enzyme label.

Experiment [2] concerns the target T1, Recombinant human IKKβ (residues 1-737) (Homo sapiens, UniProt O14920).
T1 construct: Recombinant human IKKβ (residues 1-737); GST (C); made in house
T1 sequence (O14920 1-737): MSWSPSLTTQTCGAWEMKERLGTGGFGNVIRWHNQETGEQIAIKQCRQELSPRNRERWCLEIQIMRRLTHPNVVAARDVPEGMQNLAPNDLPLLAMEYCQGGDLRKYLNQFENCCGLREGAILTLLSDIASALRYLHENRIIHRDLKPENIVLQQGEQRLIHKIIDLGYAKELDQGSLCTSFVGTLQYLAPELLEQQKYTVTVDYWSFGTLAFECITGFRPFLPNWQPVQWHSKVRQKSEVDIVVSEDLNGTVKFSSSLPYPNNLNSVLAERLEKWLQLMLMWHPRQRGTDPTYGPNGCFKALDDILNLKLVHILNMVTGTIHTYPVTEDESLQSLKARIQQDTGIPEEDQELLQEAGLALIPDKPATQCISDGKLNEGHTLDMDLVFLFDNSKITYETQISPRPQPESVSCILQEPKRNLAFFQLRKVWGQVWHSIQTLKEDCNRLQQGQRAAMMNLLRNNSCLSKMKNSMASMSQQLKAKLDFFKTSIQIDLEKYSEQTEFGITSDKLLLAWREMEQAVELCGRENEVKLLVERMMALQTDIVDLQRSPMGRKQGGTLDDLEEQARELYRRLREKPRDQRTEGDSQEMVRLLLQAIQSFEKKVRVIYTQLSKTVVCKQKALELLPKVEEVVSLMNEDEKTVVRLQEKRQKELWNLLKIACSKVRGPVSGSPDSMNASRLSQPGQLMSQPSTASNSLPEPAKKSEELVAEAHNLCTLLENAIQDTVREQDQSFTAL
Description: IKK2 assay (TR-FRET). Format: biochemical. The following applies: ATP 1 μM final, read-out: pIC50 against IKK2 (converted). An outline of the steps:
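Baculovirus-expressed C-terminal GST-tagged IKKβ (0.5-5 nM final) in HEPES pH 7.4, MgCl2, CHAPS, DTT, BSA with 1.7% DMSO; 25 nM GST-IB substrate and 1 μM ATP, 15 min at room temperature. EDTA stop; phospho-Ser32/36 detected by Eu-antibody/APC-anti-GST TR-FRET, 665/620 nm ratio.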

Structures can show the parent of a compound that is named as a salt. Bounds are passed on as bounds.

On to `CCC1CCCN1Cc1cc(-c2cc(C(N)=O)c3[nH]cc(C4CCN(S(=O)(=O)CC)CC4)c3c2)cs1` (centres unmarked) [Example 92, 5-{5-[(2-ethyl-1-pyrrolidinyl)methyl]-3-thienyl}-3-[1-(ethylsulfonyl)-4-piperidinyl]-1H-indole-7-carboxamide], for which the IC50 in experiment [1] was at most 1.5 µM; in experiment [2] it was at most 10 µM.

What is called inhibition is the share of the control response that was lost under treatment. Take `CCS(=O)(=O)N1CCC(c2c[nH]c3c(C(N)=O)cc(-c4csc(CN5CCCC5C(C)C)c4)cc23)CC1` (centres unmarked) [Example 94, 3-[1-(ethylsulfonyl)-4-piperidinyl]-5-(5-{[2-(1-methylethyl)-1-pyrrolidinyl]methyl}-3-thienyl)-1H-indole-7-carboxamide]: in experiment [1] (read-out: inhibition at 300 nM in the monocyte assay), the inhibition at 0.3 µM fell in the range of 0 to 60%. Besides, the IC50 in experiment [2] is at most 10 µM.

Regarding `CCS(=O)(=O)N1CCC(c2c[nH]c3c(C(N)=O)cc(-c4csc(CN5CCC[C@H]5COC)c4)cc23)CC1` [Example 95, 3-[1-(ethylsulfonyl)-4-piperidinyl]-5-[5-({(2S)-2-[(methyloxy)methyl]-1-pyrrolidinyl}methyl)-3-thienyl]-1H-indole-7-carboxamide], the IC50 in experiment [1] is at most 1.5 µM; in experiment [2], at most 10 µM.

On to `CCS(=O)(=O)N1CCC(c2c[nH]c3c(C(N)=O)cc(-c4csc(CN(C)C5CCCCC5)c4)cc23)CC1` [Example 96, 5-(5-{[cyclohexyl(methyl)amino]methyl}-3-thienyl)-3-[1-(ethylsulfonyl)-4-piperidinyl]-1H-indole-7-carboxamide], for which the IC50 in experiment [1] was at most 1.5 µM; in experiment [2], at most 10 µM.

`CCCN(C)Cc1cc(-c2cc(C(N)=O)c3[nH]cc(C4CCN(S(=O)(=O)C(C)C)CC4)c3c2)cs1` [Example 100, 3-{1-[(1-methylethyl)sulfonyl]-4-piperidinyl}-5-(5-{[methyl(propyl)amino]methyl}-3-thienyl)-1H-indole-7-carboxamide trifluoroacetate]: the IC50 in experiment [1] was at most 1.5 µM; in experiment [2], at most 10 µM.

In the case of `CCN(C)Cc1cc(-c2cc(C(N)=O)c3[nH]cc(C4CCN(S(=O)(=O)C(C)C)CC4)c3c2)cs1` [Example 101, 5-(5-{[ethyl(methyl)amino]methyl}-3-thienyl)-3-{1-[(1-methylethyl)sulfonyl]-4-piperidinyl}-1H-indole-7-carboxamide], the IC50 in experiment [1] was at most 1.5 µM; in experiment [2], at most 10 µM.

Consider `COCCN(C)Cc1cc(-c2cc(C(N)=O)c3[nH]cc(C4CCN(S(=O)(=O)C(C)C)CC4)c3c2)cs1` [Example 102, 3-{1-[(1-methylethyl)sulfonyl]-4-piperidinyl}-5-[5-({methyl[2-(methyloxy)ethyl]amino}methyl)-3-thienyl]-1H-indole-7-carboxamide], for which the IC50 in experiment [1] was at most 1.5 µM; in experiment [2] it was at most 10 µM.

Take `CCS(=O)(=O)N1CCC(c2c[nH]c3c(C(N)=O)cc(-c4ccc(CNC)s4)cc23)CC1` [Example 103, 3-[1-(ethylsulfonyl)-4-piperidinyl]-5-{5-[(methylamino)methyl]-2-thienyl}-1H-indole-7-carboxamide]: the IC50 was at most 1.5 µM in experiment [1] and at most 10 µM in experiment [2].

On to `CCS(=O)(=O)N1CCC(c2c[nH]c3c(C(N)=O)cc(-c4csc(CN5CCCC5C)c4)cc23)CC1` (centres unmarked) [Example 104, 3-[1-(ethylsulfonyl)-4-piperidinyl]-5-{5-[(2-methyl-1-pyrrolidinyl)methyl]-3-thienyl}-1H-indole-7-carboxamide trifluoroacetate], for which the IC50 is at most 1.5 µM in experiment [1] and at most 10 µM in experiment [2].

As for `CCS(=O)(=O)N1CCC(c2c[nH]c3c(C(N)=O)cc(-c4csc(CNCC(C)C)c4)cc23)CC1` [Example 105, 3-[1-(ethylsulfonyl)-4-piperidinyl]-5-(5-{[(2-methylpropyl)amino]methyl}-3-thienyl)-1H-indole-7-carboxamide trifluoroacetate], the IC50 in experiment [1] was at most 1.5 µM; in experiment [2], at most 10 µM.
